The results in this text go back to patent US12358948B2, “Neurotensinergic agonists and methods of using same preventing or treating pain” (priority 2019, dated 2025).

Broadly, the IC50 is the concentration needed to halve the response being measured.

The target of one series is T1, hNTS2 receptor (Homo sapiens, UniProt O95665).
T1 construct: membranes prepared from them
Kind of series: Competitive radioligand binding assay on the hNTS2 receptor. As to conditions: for IC50: IC50 NTS2, displacement of 125I-[Tyr3]-NT, membranes of 1321N1 cells expressing hNTS2; for Selectivity: ratio IC50 for NTS1 : IC50 for NTS2. The method in brief:
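IC50 values came from one-site competition curves against ¹²⁵I-[Tyr³]-NT after 60 min at 25 °C (pH 7.5 Tris, 0.2% BSA), with analogues at 10⁻¹¹–10⁻⁴ M and nonspecific binding set by 10⁻⁵ M NT(8-13). hNTS1 used 15 µg CHO-K1 membranes with […] tracer; hNTS2 used 50 µg 1321N1 membranes with […] tracer.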
(In general: In a radioligand displacement assay an active substance lowers the binding of a labelled ligand.)

The nature of series [1]: Body temperature (hypothermia) after intrathecal injection. It is filed as in vivo, rat. The following applies: vs saline. The method, then:
Body temperature was measured using a thermistor probe inserted into the rectum of the rats. Animals were individually acclimatized to manipulations and thermistor probe 5 min/day for three consecutive days. […] Changes in body temperature (Δ body temperature) were determined from baseline for each time and each animal. Data represents the mean±SEM of 5-6 rats for each condition.
Data are expressed as mean±standard errors of the mean (SEM). All graphs and statistical analysis were performed using GraphPad Prism™ 7 (GraphPad software, La Jolla, CA, USA). […] A two-way ANOVA followed by Tukey's multiple comparisons test was used to determine the significant differences in changes in body temperature between different concentrations of compounds and saline (FIG. 9). The % MPE for the tail-flick test and the areas under the curve for the formalin test were analyzed using a one-way ANOVA followed by a Dunnett's multiple comparisons test to compare different concentrations of compounds and saline treatment (FIGS. 2B, 4B, 7A-B and 8B-D). […] Nonlinear regression using three parameters was performed for % of ileum relaxation and IC50 value was obtained from the resulting dose-response curve (FIG. 11). A difference in response was considered significant with p-values *p<0.05, **p<0.01, ***p<0.001 and **p<0.0001.

“And” between values parts separate entries of the source, which are not always exact repeats. Equal values may be shown once. “Also recorded” adds a separate entry of the source. Where a SMILES comes first, the peptide text is derived from it. Bridges are numbered along the chain shown (N, C = ends). [ ]: non-standard residue; d: D form. Ala(cPent) = N[C@@H](CC1CCCC1)C(=O)O; AllylGly = C=CC[C@H](N)C(=O)O

T1 sequence (O95665 whole entry): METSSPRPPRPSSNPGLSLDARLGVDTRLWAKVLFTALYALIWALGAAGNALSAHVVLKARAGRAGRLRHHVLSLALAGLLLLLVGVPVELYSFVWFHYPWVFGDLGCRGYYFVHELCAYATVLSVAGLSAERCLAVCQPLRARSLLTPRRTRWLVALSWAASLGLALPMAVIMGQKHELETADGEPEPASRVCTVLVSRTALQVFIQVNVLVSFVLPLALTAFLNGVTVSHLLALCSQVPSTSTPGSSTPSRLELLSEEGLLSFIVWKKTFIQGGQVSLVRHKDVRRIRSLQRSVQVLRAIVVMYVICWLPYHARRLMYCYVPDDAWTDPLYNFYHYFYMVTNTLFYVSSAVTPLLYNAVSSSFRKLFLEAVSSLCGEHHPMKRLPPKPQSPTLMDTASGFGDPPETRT

Turning to `NCCCC[C@@H]1NC(=O)[C@H](CCCCN)NC(=O)[C@@H](N)CC=CC[C@@H](C(=O)N[C@@H](Cc2ccc(O)cc2)C(=O)N[C@@H](CC2CCCC2)C(=O)O)NC1=O` [compound 67, c[G(All)KKG(All)]YA(cyclopentyl)] (H-[AllylGly]KK[AllylGly]Y[Ala(cPent)]-OH; staple 1-4), at hNTS2 receptor, the IC50 was 3.06 nM and the Selectivity was >32 680. The “Hypothermia (i.t.)” value in series [1] (209 nmol/kg i.t.) is listed as “no significant variation in body temperature; also recorded: No hypothermia”.

Turning to `CC(C)C[C@H](NC(=O)[C@H](Cc1ccc(O)cc1)NC(=O)[C@@H]1CC=CC[C@H](N)C(=O)N[C@@H](CCCCN)C(=O)N[C@@H](CCCCN)C(=O)N1)C(=O)O` [compound 34, c[G(All)KKG(All)]YL] (H-[AllylGly]KK[AllylGly]YL-OH; staple 1-4), on hNTS2 receptor, the IC50 turned out to be 59.6 nM; the Selectivity is 3339 and 1685. In series [1] (150 μg/kg i.t.), the “Hypothermia (i.t.)” value is reported as “no significant variation in body temperature; also recorded: No hypothermia”.
